Test results from ChEMBL document CHEMBL5465560, “Selectivity Literature for EUbOPEN Chemogenomic Library” (2024).
Positions count from the first letter of the chain named.

Tests used:
Conditions in all cases: at 1 µM
[1] = tested on: T1, Receptor-type tyrosine-protein kinase FLT3 (Homo sapiens), P36888 [R834Q]; assay: (§1) Selectivity interaction (KinomeScan (DiscoverX)) EUB0001619a FLT3
T1 sequence (whole entry): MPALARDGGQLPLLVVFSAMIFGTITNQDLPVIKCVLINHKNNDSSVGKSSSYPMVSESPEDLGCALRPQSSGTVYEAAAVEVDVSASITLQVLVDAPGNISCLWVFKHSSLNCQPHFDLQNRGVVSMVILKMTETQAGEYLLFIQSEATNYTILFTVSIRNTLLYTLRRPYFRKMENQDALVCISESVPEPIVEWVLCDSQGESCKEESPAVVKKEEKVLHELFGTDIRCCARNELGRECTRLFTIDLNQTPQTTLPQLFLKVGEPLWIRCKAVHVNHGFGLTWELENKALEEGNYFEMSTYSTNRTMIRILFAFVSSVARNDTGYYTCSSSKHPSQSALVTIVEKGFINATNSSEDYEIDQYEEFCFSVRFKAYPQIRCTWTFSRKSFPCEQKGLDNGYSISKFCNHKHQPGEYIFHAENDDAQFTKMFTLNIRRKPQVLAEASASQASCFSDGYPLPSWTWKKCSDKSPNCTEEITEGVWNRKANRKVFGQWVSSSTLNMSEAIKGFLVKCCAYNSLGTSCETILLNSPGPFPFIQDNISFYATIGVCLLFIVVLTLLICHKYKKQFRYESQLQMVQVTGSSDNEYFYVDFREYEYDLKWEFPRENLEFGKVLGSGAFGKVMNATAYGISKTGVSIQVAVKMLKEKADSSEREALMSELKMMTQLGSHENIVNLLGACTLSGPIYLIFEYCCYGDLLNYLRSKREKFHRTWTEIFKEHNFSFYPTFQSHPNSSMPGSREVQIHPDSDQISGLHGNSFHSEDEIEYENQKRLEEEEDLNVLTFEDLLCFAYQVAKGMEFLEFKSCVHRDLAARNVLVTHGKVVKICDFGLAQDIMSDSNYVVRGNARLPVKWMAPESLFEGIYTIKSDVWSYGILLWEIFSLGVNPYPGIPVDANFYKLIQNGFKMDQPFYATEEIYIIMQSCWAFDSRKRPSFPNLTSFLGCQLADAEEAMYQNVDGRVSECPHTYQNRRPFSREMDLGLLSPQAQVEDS

[2] = tested on: T2, Receptor-type tyrosine-protein kinase FLT3 (Homo sapiens), P36888 [K663Q]; assay: as §1
T2 sequence (whole entry): T1 sequence (whole entry) with K663Q, Q834R

[3] = tested on: T3, Receptor-type tyrosine-protein kinase FLT3 (Homo sapiens), P36888 [D835H]; assay: as §1
T3 sequence (whole entry): T1 sequence (whole entry) with Q834R, D835H

Compound `N#Cc1cccc(-c2c[nH]c3ncnc(N4CCOCC4)c23)c1` has a % of control [1] of 93%, a % of control [2] of 71% and a % of control [3] of 72%.
